Experimental data from PMC7168207, “Dibasic Derivatives of Phenylcarbamic Acid as Prospective Antibacterial Agents Interacting with Cytoplasmic Membrane” (Antibiotics, 2020).
Values joined by “and” are separate entries in the source; they are usually repeats but may differ in a detail not shown here. Equal values may be shown once. Marks after values point to notes of the source that are not given here.

Experiments:
[1] = system: MRSA SA 3202; assay: synergy with antibiotics (FIC index, checkerboard); type: cell-based, Staphylococcus aureus; details: in the combination of that line
Source text: (§1) Representatives from various classes were chosen in order to study the potential difference in synergistic activity according to the diverse mechanisms of action and resistance of these drugs. The method of minimal fractional inhibitory concentration (FIC) index (FICI) in a microtitration plate was used. FICI ≤ 0.5 means synergy; 0.5 < FICI < 1 means additivity; 1 ≤ FICI < 4 means indifference; and FICI ≥ 4 means antagonism.
(§2) For synergy effect study, a method of fractional inhibitory concentration was used. […] Raw H was used for the evaluation of MIC(A); column 12 was used for evaluation of MIC(B). The plate was inoculated by the bacterial suspension to reach final concentration of 5 × 10^5 CFU/mL in the wells. The fractional inhibitory concentration (FIC) index was calculated using the concentrations in the first nonturbid (clear) well found in each row and column along the turbidity/nonturbidity interface. To interpret the combined effect, the lowest FICI was used. A ΣFIC ≤ 0.5 means synergy; 0.5 < ΣFIC < 1 means additivity; 1 ≤ ΣFIC < 4 means indifference; and ΣFIC ≥ 4 means antagonism. The tests were made in duplicate, and the results were averaged.

[2] = system: VRE 368; assay: time-kill study; type: cell-based, Enterococcus faecalis; details: VRE2
Source text: (§3) Time-kill studies are used to evaluate the dynamics of antibacterial activity. As mentioned above, a pre-test to determine minimum bactericidal concentration (MBC) by sub-cultivation of aliquots on agar was made (see Section 3.4). […] Time-kill studies were made with methicillin-susceptible S. aureus ATCC 29213 and methicillin-resistant MRSA 63718, vancomycin-susceptible E. faecalis ATCC 29212, and all three VRE isolates. Vancomycin was used as a control (Table 6).
(§4) The method of time-kill curves was used to study the bactericidal effect of selected compounds. […] The experiment was performed with S. aureus ATCC 29213, MRSA 63718, E. faecalis ATCC 29212, and all VRE isolates. […] The tubes were inoculated by bacterial inoculum in the exponential phase of growth to get a final concentration of 7.5 × 10^6 CFU/mL. The tubes were incubated statically at 37 °C. Immediately after inoculation and after 4, 6, 8, and 24 h, 100 µL of the sample was serially diluted (1:10) in PBS. Then, 2 × 20 µL from each dilution were put onto a Mueller–Hinton agar plate and cultivated at 37 °C for 24 h. After incubation, CFUs of dilutions containing 5–50 colonies were counted. Results were expressed as a decrease of log10(CFU) in each time compared to the starting inoculum. Bactericidal effect is defined as a −3log decrease of CFU/mL compared to the growth control in time 0. The test was made in duplicate on two separate occasions, and the results were averaged. The growth curves with error bars are shown in Figures S1 and S2 in Supplementary Materials.

[3] = system: VRE 342B; assay: time-kill study; type: cell-based, Enterococcus faecalis; details: VRE1
Source text: as §3, §4

[4] = system: VRE 725B; assay: time-kill study; type: cell-based, Enterococcus faecalis; details: VRE3
Source text: as §3, §4

[5] = system: E. faecalis ATCC 29212; assay: time-kill study; type: cell-based, Enterococcus faecalis; details: EF
Source text: as §3, §4

[6] = system: Candida albicans CCM 8261; assay: minimum fungistatic concentration, RPMI 1640; type: cell-based; details: CCM8261, CA = C albicans CCM 8261, 48 h
Protocol: Fungistatic activity was tested similarly in RPMI (Roswell Park Memorial Institute) 1640 medium (Sigma, Pool, UK). […] A growth control and sterility control were included. The colonies of C. albicans grown overnight on Sabourad dextrose agar were suspended in sterile phosphate-buffered saline (PBS) to get cell density 0.5 McFarland. The inoculum was diluted to get a final concentration of 10^3 CFU/mL in the wells. Plates were inoculated and cultivated at 37 °C for 48 h. The minimum fungistatic concentration was visually evaluated as the lowest concentration of a tested compound, which inhibited 100% of yeast growth. 5-Flucytosin (Sigma, UK) was used as a positive control.

[7] = system: MRSA 63718; assay: time-kill study; type: cell-based, Staphylococcus aureus; details: MRSA1
Source text: as §3, §4

[8] = system: VRE 725B; assay: synergy with antibiotics (FIC index, checkerboard); type: cell-based, Enterococcus faecalis; details: combination with VAN, data not shown
Source text: as §1
The used VRE strains were isolated from American crows by Oravcova et al., and their genetic profiles were characterized. All the VRE strains were carrying genes vanA, tetM, and ermB. Strains VRE 368 and VRE 725B carried gene aac, which provided acquired aminoglycoside resistance.
as §2

Compound: CCCCCCCOc1cccc(NC(=O)OC(CN(CCC)CCC)CN2CCCC2)c1.Cl.Cl (stereo not drawn) [1h, 1-[3-(Dipropylammonio)-2-({[3-(heptyloxy)phenyl]carbamoyl}oxy)propyl]pyrrolidinium dichloride]
- concentrations of the tested compound/clinically used antibiotic providing additivity or synergy [1]: 4 µg/mL
- Log10 Difference in CFU/mL from Inoculum ([2]; 1 × MIC, 4 h): 0.46 log10 CFU/mL
- Log10 Difference in CFU/mL from Inoculum ([2]; 1 × MIC, 6 h): 0.71 log10 CFU/mL
- Log10 Difference in CFU/mL from Inoculum ([2]; 1 × MIC, 8 h): 1.25 log10 CFU/mL
- Log10 Difference in CFU/mL from Inoculum ([2]; 1 × MIC, 24 h): 1.13 log10 CFU/mL
- Log10 Difference in CFU/mL from Inoculum ([2]; 2 × MIC, 4 h): 0.28 log10 CFU/mL
- Log10 Difference in CFU/mL from Inoculum ([2]; 2 × MIC, 6 h): 0.54 log10 CFU/mL
- Log10 Difference in CFU/mL from Inoculum ([2]; 2 × MIC, 8 h): −0.37 log10 CFU/mL
- Log10 Difference in CFU/mL from Inoculum ([2]; 2 × MIC, 24 h): 0.66 log10 CFU/mL
- Log10 Difference in CFU/mL from Inoculum ([2]; 4 × MIC, 4 h): −0.32 log10 CFU/mL
- Log10 Difference in CFU/mL from Inoculum ([2]; 4 × MIC, 6 h): 0.05 log10 CFU/mL
- Log10 Difference in CFU/mL from Inoculum ([2]; 4 × MIC, 8 h): 0.22 log10 CFU/mL
- Log10 Difference in CFU/mL from Inoculum ([2]; 4 × MIC, 24 h): 0.37 log10 CFU/mL
- Log10 Difference in CFU/mL from Inoculum ([3]; 1 × MIC, 4 h): 0.07 log10 CFU/mL
- Log10 Difference in CFU/mL from Inoculum ([3]; 1 × MIC, 6 h): 1.08 log10 CFU/mL
- Log10 Difference in CFU/mL from Inoculum ([3]; 1 × MIC, 8 h): −0.08 log10 CFU/mL
- Log10 Difference in CFU/mL from Inoculum ([3]; 1 × MIC, 24 h): 1.42 log10 CFU/mL
- Log10 Difference in CFU/mL from Inoculum ([3]; 2 × MIC, 4 h): 0.09 log10 CFU/mL
- Log10 Difference in CFU/mL from Inoculum ([3]; 2 × MIC, 6 h): 0.41 log10 CFU/mL
- Log10 Difference in CFU/mL from Inoculum ([3]; 2 × MIC, 8 h): −0.02 log10 CFU/mL
- Log10 Difference in CFU/mL from Inoculum ([3]; 2 × MIC, 24 h): 0.47 log10 CFU/mL
- Log10 Difference in CFU/mL from Inoculum ([3]; 4 × MIC, 4 h): −0.78 log10 CFU/mL
- Log10 Difference in CFU/mL from Inoculum ([3]; 4 × MIC, 6 h): −0.99 log10 CFU/mL
- Log10 Difference in CFU/mL from Inoculum ([3]; 4 × MIC, 8 h): −0.66 log10 CFU/mL
- Log10 Difference in CFU/mL from Inoculum ([3]; 4 × MIC, 24 h): 0.85 log10 CFU/mL
- Log10 Difference in CFU/mL from Inoculum ([4]; 1 × MIC, 4 h): −0.70 log10 CFU/mL
- Log10 Difference in CFU/mL from Inoculum ([4]; 1 × MIC, 6 h): 0.08 log10 CFU/mL
- Log10 Difference in CFU/mL from Inoculum ([4]; 1 × MIC, 8 h): −0.05 log10 CFU/mL
- Log10 Difference in CFU/mL from Inoculum ([4]; 1 × MIC, 24 h): 0.92 log10 CFU/mL
- Log10 Difference in CFU/mL from Inoculum ([4]; 2 × MIC, 4 h): −1.81 log10 CFU/mL
- Log10 Difference in CFU/mL from Inoculum ([4]; 2 × MIC, 6 h): −1.31 log10 CFU/mL
- Log10 Difference in CFU/mL from Inoculum ([4]; 2 × MIC, 8 h): −0.81 log10 CFU/mL
- Log10 Difference in CFU/mL from Inoculum ([4]; 2 × MIC, 24 h): 0.95 log10 CFU/mL
- Log10 Difference in CFU/mL from Inoculum ([4]; 4 × MIC, 4 h): −1.75 * log10 CFU/mL
- Log10 Difference in CFU/mL from Inoculum ([4]; 4 × MIC, 6 h): −0.76 log10 CFU/mL
- Log10 Difference in CFU/mL from Inoculum ([4]; 4 × MIC, 8 h): −0.76 log10 CFU/mL
- Log10 Difference in CFU/mL from Inoculum ([4]; 4 × MIC, 24 h): 1.08 log10 CFU/mL
- Log10 Difference in CFU/mL from Inoculum ([5]; 1 × MIC, 4 h): −0.64 log10 CFU/mL
- Log10 Difference in CFU/mL from Inoculum ([5]; 1 × MIC, 6 h): 0.16 log10 CFU/mL
- Log10 Difference in CFU/mL from Inoculum ([5]; 1 × MIC, 8 h): 0.24 log10 CFU/mL
- Log10 Difference in CFU/mL from Inoculum ([5]; 1 × MIC, 24 h): 0.34 log10 CFU/mL
- Log10 Difference in CFU/mL from Inoculum ([5]; 2 × MIC, 4 h): −1.87 log10 CFU/mL
- Log10 Difference in CFU/mL from Inoculum ([5]; 2 × MIC, 6 h): −1.36 log10 CFU/mL
- Log10 Difference in CFU/mL from Inoculum ([5]; 2 × MIC, 8 h): −0.86 log10 CFU/mL
- Log10 Difference in CFU/mL from Inoculum ([5]; 2 × MIC, 24 h): 0.42 log10 CFU/mL
- Log10 Difference in CFU/mL from Inoculum ([5]; 4 × MIC, 4 h): −2.57 * log10 CFU/mL
- Log10 Difference in CFU/mL from Inoculum ([5]; 4 × MIC, 6 h): −2.23 * log10 CFU/mL
- Log10 Difference in CFU/mL from Inoculum ([5]; 4 × MIC, 8 h): −1.62 log10 CFU/mL
- Log10 Difference in CFU/mL from Inoculum ([5]; 4 × MIC, 24 h): 0.49 log10 CFU/mL
- MIC [6]: 8 µg/mL and 15 µM
- Log10 Difference in CFU/mL from Inoculum ([7]; 1 × MIC, 4 h): −0.73 * log10 CFU/mL
- Log10 Difference in CFU/mL from Inoculum ([7]; 1 × MIC, 6 h): −0.11 log10 CFU/mL
- Log10 Difference in CFU/mL from Inoculum ([7]; 1 × MIC, 8 h): 0.98 log10 CFU/mL
- Log10 Difference in CFU/mL from Inoculum ([7]; 1 × MIC, 24 h): 1.58 log10 CFU/mL
- Log10 Difference in CFU/mL from Inoculum ([7]; 2 × MIC, 4 h): −0.92 * log10 CFU/mL
- Log10 Difference in CFU/mL from Inoculum ([7]; 2 × MIC, 6 h): −0.42 * log10 CFU/mL
- Log10 Difference in CFU/mL from Inoculum ([7]; 2 × MIC, 8 h): −0.13 log10 CFU/mL
- Log10 Difference in CFU/mL from Inoculum ([7]; 2 × MIC, 24 h): 1.62 log10 CFU/mL
- Log10 Difference in CFU/mL from Inoculum ([7]; 4 × MIC, 4 h): −2.48 * log10 CFU/mL
- Log10 Difference in CFU/mL from Inoculum ([7]; 4 × MIC, 6 h): −2.40 * log10 CFU/mL
- Log10 Difference in CFU/mL from Inoculum ([7]; 4 × MIC, 8 h): −2.08 * log10 CFU/mL
- Log10 Difference in CFU/mL from Inoculum ([7]; 4 × MIC, 24 h): 1.35 log10 CFU/mL
- effect of the combination with VAN [8]: indifferent effect

Compound: CN[C@H](CC(C)C)C(=O)N[C@H]1C(=O)N[C@@H](CC(N)=O)C(=O)N[C@H]2C(=O)N[C@H]3C(=O)N[C@H](C(=O)N[C@H](C(=O)O)c4cc(O)cc(O)c4-c4cc3ccc4O)[C@H](O)c3ccc(c(Cl)c3)Oc3cc2cc(c3O[C@@H]2O[C@H](CO)[C@@H](O)[C@H](O)[C@H]2O[C@H]2C[C@](C)(N)[C@H](O)[C@H](C)O2)Oc2ccc(cc2Cl)[C@H]1O [VAN, vancomycin, reference compound]
- Log10 Difference in CFU/mL from Inoculum ([7]; 1 × MIC, 4 h): −1.00 log10 CFU/mL
- Log10 Difference in CFU/mL from Inoculum ([7]; 1 × MIC, 6 h): −1.50 log10 CFU/mL
- Log10 Difference in CFU/mL from Inoculum ([7]; 1 × MIC, 8 h): −1.76 log10 CFU/mL
- Log10 Difference in CFU/mL from Inoculum ([7]; 1 × MIC, 24 h): 0.55 log10 CFU/mL
- Log10 Difference in CFU/mL from Inoculum ([7]; 2 × MIC, 4 h): −0.91 log10 CFU/mL
- Log10 Difference in CFU/mL from Inoculum ([7]; 2 × MIC, 6 h): −1.43 log10 CFU/mL
- Log10 Difference in CFU/mL from Inoculum ([7]; 2 × MIC, 8 h): −1.97 log10 CFU/mL
- Log10 Difference in CFU/mL from Inoculum ([7]; 2 × MIC, 24 h): −5.18 log10 CFU/mL
- Log10 Difference in CFU/mL from Inoculum ([7]; 4 × MIC, 4 h): −1.31 log10 CFU/mL
- Log10 Difference in CFU/mL from Inoculum ([7]; 4 × MIC, 6 h): −1.75 log10 CFU/mL
- Log10 Difference in CFU/mL from Inoculum ([7]; 4 × MIC, 8 h): −3.89 log10 CFU/mL
- Log10 Difference in CFU/mL from Inoculum ([7]; 4 × MIC, 24 h): −5.19 log10 CFU/mL
